Laboratory results as given in ChEMBL document CHEMBL1151864, “Substrate based peptide aldehyde inhibits bacterial type I signal peptidase” (Bioorg Med Chem Lett, 2009).
Values after ≈ are worked out from the molar mass of the structure shown. Active and inactive are the calls of the source. The rule behind the calls is not given here. Residues, ends and D or L forms follow the SMILES beside them. *: point of attachment. Decanoyl = CCCCCCCCCC(=O)*

Experiments:
[1] = Inhibition of Staphylococcus aureus type I signal peptidase SpsB-mediated processing of internally quenched fluorescent synthetic peptide substrate
Staphylococcus aureus [2] = test: Inhibition of Staphylococcus aureus type I signal peptidase SpsB-mediated processing of internally quenched fluorescent synthetic peptide substrate at 200 uM
[3] = target: Signal peptidase I (Escherichia coli K-12) (UniProt P00803); test: (§1) Inhibition of Escherichia coli type I signal peptidase lepB
Escherichia coli = test: Antimicrobial activity against Escherichia coli by broth microdilution method; format: functional
Staphylococcus aureus [4] = test: Antimicrobial activity against Staphylococcus aureus by broth microdilution method; format: functional
[5] = test system: Staphylococcus epidermidis; test: Antimicrobial activity against Staphylococcus epidermidis by broth microdilution method; format: functional
Signal peptidase I = Signal peptidase I (Escherichia coli K-12, UniProt P00803); test: as §1
Sequence of Signal peptidase I (P00803 whole entry): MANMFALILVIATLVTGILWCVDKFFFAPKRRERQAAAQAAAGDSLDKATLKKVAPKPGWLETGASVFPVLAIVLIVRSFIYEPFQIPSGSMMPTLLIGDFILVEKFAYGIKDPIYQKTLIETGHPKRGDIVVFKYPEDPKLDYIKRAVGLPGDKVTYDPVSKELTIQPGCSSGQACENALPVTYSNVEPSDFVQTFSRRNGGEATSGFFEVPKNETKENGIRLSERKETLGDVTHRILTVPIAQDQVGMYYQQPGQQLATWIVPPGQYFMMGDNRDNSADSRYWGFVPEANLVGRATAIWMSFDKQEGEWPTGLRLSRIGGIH

Sequence of Signal peptidase I (Escherichia coli K-12) (P00803 whole entry): as above

**Q.** With CCCCCCCCCC(=O)N[C@@H](C)C(=O)N[C@@H](CCCCN)C(=O)N[C@@H](C)C(=O)N1CCC[C@H]1C(=O)N[C@@H](CO)C(=O)N[C@@H](CCCCN)C(=O)N[C@H](C(=O)N[C@@H](CC(=O)O)C(=O)N[C@@H](CC(=O)O)C(=O)O)[C@@H](C)CC (Decanoyl-AKAPSKIDD-OH) as the compound, how does the IC50 [1] read?
**A.** Its IC50 is > 200 µM.

**Q.** And the inhibition (Staphylococcus aureus [2])?
**A.** The inhibition was 0%.

**Q.** And the Activity [3]?
**A.** Its Activity is “inactive”.

**Q.** Which IC50 [1] does the source give for CCCCCCCCCC(=O)N[C@@H](CC(C)C)C(=O)N[C@H](C(=O)N1CCC[C@H]1C(=O)N[C@H](C(=O)N[C@@H](C)C(=O)N[C@@H](CCCCN)C(=O)N[C@@H](C)C(=O)N1CCC[C@H]1C(=O)N[C@@H](CO)C(=O)O)[C@@H](C)O)[C@@H](C)O (Decanoyl-LTPTAKAPS-OH) here?
**A.** The IC50 was 22.5 µM.

**Q.** What about the inhibition (Staphylococcus aureus [2]) of the same compound?
**A.** Its inhibition is 92.9%.

**Q.** What about the Activity [3] of the same compound?
**A.** Its Activity is “inactive”.

**Q.** With CCCCCCCCCC(=O)N[C@@H](CC(C)C)C(=O)N[C@H](C(=O)N1CCC[C@H]1C(=O)N[C@H](C(=O)N[C@@H](C)C(=O)N[C@@H](CCCCN)C(=O)N[C@@H](C)C(=O)N1CCC[C@H]1C(=O)N[C@@H](CO)C(=O)N[C@@H](CCCCN)C(=O)O)[C@@H](C)O)[C@@H](C)O (Decanoyl-LTPTAKAPSK-OH) as the compound, how does the IC50 [1] read?
**A.** Its IC50 is 1 µM.

**Q.** What about the inhibition (Staphylococcus aureus [2]) of the same compound?
**A.** The inhibition was 108%.

**Q.** What about the Activity [3] of the same compound?
**A.** The Activity was “inactive”.

**Q.** For CCCCCCCCCC(=O)N[C@@H](CC(C)C)C(=O)N[C@H](C(=O)N1CCC[C@H]1C(=O)N[C@H](C(=O)N[C@@H](C)C(=O)N[C@@H](CCCCN)C(=O)N[C@@H](C)C(=O)N1CCC[C@H]1C(=O)N[C@@H](CO)C(=O)N[C@@H](CCCCN)C(=O)N[C@H](C(=O)O)[C@@H](C)CC)[C@@H](C)O)[C@@H](C)O (Decanoyl-LTPTAKAPSKI-OH), which IC50 [1] is on record?
**A.** The IC50 was 2.6 µM.

**Q.** And the inhibition (Staphylococcus aureus [2])?
**A.** Its inhibition is 107%.

**Q.** What about the Activity [3] of the same compound?
**A.** Its Activity is “inactive”.

**Q.** Which IC50 [1] does the source give for CCCCCCCCCC(=O)N[C@@H](CC(C)C)C(=O)N[C@H](C(=O)N1CCC[C@H]1C(=O)N[C@H](C(=O)N[C@@H](C)C(=O)N[C@@H](CCCCN)C(=O)N[C@@H](C)C(=O)N1CCC[C@H]1C(=O)N[C@@H](CO)C(=O)N[C@@H](CCCCN)C(=O)N[C@H](C(=O)N[C@@H](CC(=O)O)C(=O)O)[C@@H](C)CC)[C@@H](C)O)[C@@H](C)O (Decanoyl-LTPTAKAPSKID-OH) here?
**A.** The IC50 was 5 µM.

**Q.** What about the inhibition (Staphylococcus aureus [2]) of the same compound?
**A.** Its inhibition is 108%.

**Q.** What about the Activity [3] of the same compound?
**A.** The Activity was “inactive”.

**Q.** What does the source list for CCCCCCCCCC(=O)N[C@@H](CC(C)C)C(=O)N[C@H](C(=O)N1CCC[C@H]1C(=O)N[C@H](C(=O)N[C@@H](C)C(=O)N[C@@H](CCCCN)C(=O)N[C@@H](C)C(=O)N1CCC[C@H]1C(=O)N[C@@H](CO)C(=O)N[C@@H](CCCCN)C(=O)N[C@H](C(=O)N[C@@H](CC(=O)O)C(=O)N[C@@H](CC(=O)O)C(=O)O)[C@@H](C)CC)[C@@H](C)O)[C@@H](C)O (Decanoyl-LTPTAKAPSKIDD-OH)?
**A.** IC50 [1]: 0.8 µM; Activity (Escherichia coli): inactive; Activity (Staphylococcus aureus [4]): inactive; Activity [5]: inactive; inhibition (Staphylococcus aureus [2]): 107%; Activity [3]: inactive

**Q.** With CCCCCCCCCC(=O)N1CCC[C@H]1C(=O)N[C@H](C(=O)N[C@@H](C)C(=O)N[C@@H](CCCCN)C(=O)N[C@@H](C)C(=O)N1CCC[C@H]1C(=O)N[C@@H](CO)C(=O)N[C@@H](CCCCN)C(=O)N[C@H](C(=O)N[C@@H](CC(=O)O)C(=O)N[C@@H](CC(=O)O)C(=O)O)[C@@H](C)CC)[C@@H](C)O (Decanoyl-PTAKAPSKIDD-OH) as the compound, how does the IC50 [1] read?
**A.** The IC50 was 3.2 µM.

**Q.** And the inhibition (Staphylococcus aureus [2])?
**A.** Its inhibition is 106%.

**Q.** And the Activity [3]?
**A.** Its Activity is “inactive”.

**Q.** With CCCCCCCCCC(=O)N1CCC[C@H]1C(=O)N[C@H](C(=O)N[C@@H](C)C(=O)N[C@@H](CC(N)=O)C(=O)N[C@@H](C)C=O)[C@@H](C)O (Decanoyl-PTANA-aldehyde) as the compound, how does the IC50 [1] read?
**A.** Its IC50 is 0.09 µM.

**Q.** What about the MIC (Escherichia coli) of the same compound?
**A.** The MIC was > 500 µg/mL.

**Q.** What about the MIC (Staphylococcus aureus [4]) of the same compound?
**A.** The MIC was 125 µg/mL (≈ 205 µM).

**Q.** And the MIC [5]?
**A.** The MIC was 500 µg/mL (≈ 819 µM).

**Q.** And the IC50 (Signal peptidase I)?
**A.** The IC50 was 13.4 µM.

**Q.** With CCCCCCCCCC(=O)N[C@H](C(=O)N[C@@H](C)C(=O)N[C@@H](CCCCN)C(=O)N[C@@H](C)C(=O)N1CCC[C@H]1C(=O)N[C@@H](CO)C(=O)N[C@@H](CCCCN)C(=O)N[C@H](C(=O)N[C@@H](CC(=O)O)C(=O)N[C@@H](CC(=O)O)C(=O)O)[C@@H](C)CC)[C@@H](C)O (Decanoyl-TAKAPSKIDD-OH) as the compound, how does the IC50 [1] read?
**A.** Its IC50 is 30.8 µM.

**Q.** What about the inhibition (Staphylococcus aureus [2]) of the same compound?
**A.** The inhibition was 98%.

**Q.** What about the Activity [3] of the same compound?
**A.** The Activity was “inactive”.

**Q.** With CCCCCCCCCC(=O)N[C@H](C(=O)N1CCC[C@H]1C(=O)N[C@H](C(=O)N[C@@H](C)C(=O)N[C@@H](CCCCN)C(=O)N[C@@H](C)C(=O)N1CCC[C@H]1C(=O)N[C@@H](CO)C(=O)N[C@@H](CCCCN)C(=O)N[C@H](C(=O)N[C@@H](CC(=O)O)C(=O)N[C@@H](CC(=O)O)C(=O)O)[C@@H](C)CC)[C@@H](C)O)[C@@H](C)O (Decanoyl-TPTAKAPSKIDD-OH) as the compound, how does the IC50 [1] read?
**A.** The IC50 was 4.8 µM.

**Q.** And the inhibition (Staphylococcus aureus [2])?
**A.** The inhibition was 106%.

**Q.** And the Activity [3]?
**A.** Its Activity is “inactive”.

**Q.** For CC[C@H](C)[C@H](NC(=O)[C@H](CCCCN)NC(=O)[C@H](CO)NC(=O)[C@@H]1CCCN1C(=O)[C@H](C)NC(=O)[C@H](CCCCN)NC(=O)[C@H](C)NC(=O)[C@@H](NC(=O)[C@@H]1CCCN1C(=O)[C@@H](NC(=O)[C@@H](N)CC(C)C)[C@@H](C)O)[C@@H](C)O)C(=O)N[C@@H](CC(=O)O)C(=O)N[C@@H](CC(=O)O)C(=O)O (H-LTPTAKAPSKIDD-OH), which IC50 [1] is on record?
**A.** Its IC50 is > 200 µM.

**Q.** What about the inhibition (Staphylococcus aureus [2]) of the same compound?
**A.** The inhibition was 21.6%.

**Q.** What about the Activity [3] of the same compound?
**A.** The Activity was “inactive”.
